Test results: US20240299400A1, “Transcription Factor GLI1 Inhibitors and Uses Thereof” (University of Connecticut, priority 2023, published 2024)

Tests used:
[1] = tested on: Gli2 mRNA expression; experiment: RT-qPCR Gli2 mRNA expression in ASZ001 cells; assay type: cell-based, mouse; details: 10 μM
Procedure: (§1) ASZ001 and Sufu-KO cells were seeded in 96-well plates (10,000/well, 100 μL) and incubated overnight under growth conditions. On the second day, ‘growth’ media was removed and replaced by ‘assay’ media (100 μL). On the third day, cells were treated with a serial dilution of drugs or DMSO for 48 h. mRNA expression was determined through Taqman Fast Cells-to-CT Kit (#4399003) per the manufacturer's instructions. In brief, cells were washed with chilled PBS, then mixed with lysis solution containing DNase I and incubated at RT for 5 min. Stop solution was then added to quench the lysis reagents. cDNA was then synthesized through a BioRad MyCycler following addition of reverse transcriptase. Finally, the cDNA was amplified through an ABI 7500 system following addition of Taqman Fast Universal PCR Master Mix and Taqman Gene Expression Primer. Relative gene expression levels were computed by the ΔΔCt method. Values represent mRNA expression relative to DMSO control (set at 1.0). Data were analyzed using GraphPad Prism, and IC50 values are the mean±SEM for at least two separate experiments performed in triplicate. Primers used are as follows: mouse ActB (Mm00607939_s1); mouse GLI1 (Mm00494645_ml); mouse Gli2 (Mm01293117_ml); mouse Ptch1 (Mm00436026_ml); mouse Hhip (Mm00469580_ml).

[2] = tested on: Ptch1 mRNA expression; experiment: RT-qPCR Ptch1 mRNA expression in ASZ001 cells; assay type: cell-based, mouse; details: FIG. 4A
Procedure: as §1

[3] = tested on: PANC-1 (pancreatic); experiment: MTS anti-proliferative assay in PANC-1 cells; assay type: cell-based; details: Homo sapiens, PANC-1; Table 8, 48 h, mean ± SEM
Procedure: (§2) Cell viability was assessed by MTS proliferation assay kit (Promega) per manufacturer's protocol. Briefly, 2×10^4 cells were plated in a 96-well plate in 100 μL growth medium to make the cell population at ˜80% confluence. After 24 h, 1 μL drug solution was added to each well. DMSO was used as vehicle compound. After 48 h incubation (37° C., 5% CO2), 20 μL of freshly prepared 3-(4,5-dimethylthiazol-2-yl)-5-(3-carboxymethoxyphenyl)-2-(4-sulfophenyl)-2H-tetrazolium (MTS)/phenazine methosulfate (PMS) solution was added to each well, and the plate was returned to the incubator for 1 h. Absorbance at 490 nm was recorded, and the result was analyzed by GraphPad Prism 5. GI50 values represent mean±SEM for at least two separate experiments performed in triplicate.

[4] = tested on: GLI1 mRNA expression; experiment: RT-qPCR GLI1 mRNA expression in ASZ001 BCC cells; assay type: cell-based, mouse; details: Mus musculus
[5] = tested on: GLI1 mRNA expression; experiment: RT-qPCR GLI1 mRNA expression in Sufu-KO MEFs; assay type: cell-based, mouse; details: Mus musculus
[6] = tested on: GLI2 protein expression; experiment: Western blot GLI2 protein expression in ASZ001 cells; assay type: cell-based, murine; details: 25 μM
Procedure: (§3) ASZ001 cells were plated as described above and treated with drugs or vehicle control. Following incubation, cells were washed with chilled PBS and lysed with RIPA buffer containing […] PMSF protease inhibitor (Thermo Scientific #26978). Supernatant was collected following 15 min centrifugation at 12,000 rpm and 4° C. Protein concentrations from cell extracts were determined through the BCA kit (Pierce #23228) per the manufacturer's instructions. Proteins from either cell lysate or cell-free biochemical assay were then loaded on 12% SDS-PAGE. Following electrophoresis, proteins were transferred onto nitrocellulose membrane at 100 V for 120 min at 4° C. On a clean tray with constant gentle shaking, the membrane was sequentially submerged in 5% BSA for 1 h, and incubated with the primary antibody indicated overnight at 4° C. After washes with TBST, the appropriate secondary antibody was added to the tray for a 2 h incubation at RT. Chemiluminescent detection on film was visualized using ECL reagents (BioRad #1705060) and subsequently quantitated using Image J (http://imagej.nih.gov). Primary antibodies were used at 1:2000 dilution and are as follows: GLI1 (#MA5-32553); Gli2 (#PA5-79314); β-Actin (#PA1-16889). Secondary antibody (Goat anti-Rabbit, #32460) was used at a 1:5000 dilution. All antibodies were purchased from Invitrogen.

[7] = tested on: ASZ001 cells; experiment: MTS anti-proliferative assay in ASZ001 cells; assay type: cell-based, murine; details: Mus musculus, ASZ001; Table 5, 48 h, Ave ± SEM
[8] = biological target: T1, GLI1-ZFD (Homo sapiens, UniProt P08151); experiment: Microscale thermophoresis (MST) binding to GLI1-ZFD
T1 construct: GLI1-ZFD Expression and Purification; made in house
T1 sequence (P08151 234-388 limits assumed): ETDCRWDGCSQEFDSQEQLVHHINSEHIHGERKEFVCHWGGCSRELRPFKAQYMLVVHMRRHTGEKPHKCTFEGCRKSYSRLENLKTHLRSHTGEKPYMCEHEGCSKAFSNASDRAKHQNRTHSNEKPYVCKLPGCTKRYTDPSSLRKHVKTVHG
Procedure: The protein expression and purification experiments followed the previous reported procedures [C. A. Maschinot, et al., Synthesis and evaluation of third generation vitamin D3 analogues as inhibitors of hedgehog signaling. Euro. J. Med. Chem. 162 (2019) 495-506].
GLI1 protein labeling was performed through the Monolith Protein Labeling Kit RED-NHS 2nd Generation (Nanotemper #MO-LO11) per the manufacturer's instructions. Briefly, GLI1 (100 μg, 1 mg/mL) underwent buffer exchange to remove incompatible ingredients like Tris or DTT. Proteins in the Labeling Buffer were incubated with freshly prepared dye (˜3-fold excess of dye) for 30 min at RT in the dark. Unreacted ‘free’ dye was removed by a gel-filtration column. Protein concentration and degree-of-labeling were calculated by measuring absorption at 280 nm and 650 nm. For each assay, 200 nM GLI1 in MST Buffer was mixed with compound dilution in DMSO (DMSO<5%, v/v). The mixture was then loaded to a capillary and the thermophoresis was subsequently determined through Monolith NT.115 station. Results were analyzed by MO.Affinity Analysis software and visualized by Graphpad Prism. MST Buffer: 50 mM HEPES, pH 8.3, 100 mM NaCl.

[9] = tested on: GLI1 mRNA expression; experiment: RT-qPCR GLI1 mRNA expression in OHCs-stimulated C3H10T1/2 MEFs; assay type: cell-based, mouse; details: for IC50: Mus musculus
Procedure: as §1
C3H10T1/2 MEFs were seeded in 24-well plates (50,000/well, 500 μL). Following 24 h incubation, the ‘growth’ media was removed and replaced with ‘assay’ media (500 μL). On the third day, cells were treated with either DMSO, OHCs, or OHCs+drugs. Following a 24 h incubation, gene expression analysis was carried out following identical protocols as described above.

[10] = tested on: DAOY (MB); experiment: MTS anti-proliferative assay in DAOY cells; assay type: cell-based; details: Homo sapiens, Daoy; Table 8, 48 h, mean ± SEM
Procedure: as §2

[11] = tested on: GLI1 protein levels; experiment: Western blot GLI1 protein expression in ASZ001 cells; assay type: cell-based, murine; details: 25 μM
Procedure: as §3

- GI50 [3]: 21.1 ± 4.2 µM
- IC50 ([4]; ASZ001, Table 2, mean ± SEM, read-out: GLI1 mRNA expression, IC50 ASZ001): 1300 ± 700 nM
- IC50 ([4]; ASZ001, Table 4, racemates and enantiomers, mean ± SEM, read-out: RT-qPCR, IC50 ASZ001): 1300 ± 700 nM
- IC50 ([4]; ASZ001, Table 5, GLI1 mRNA, Ave ± SEM, read-out: RT-qPCR, IC50 ASZ001): 1300 ± 700 nM
- IC50 ([5]; Table 2, mean ± SEM, read-out: GLI1 mRNA expression, IC50 Sufu-KO): 1500 ± 500 nM
- IC50 ([5]; Table 4, racemates and enantiomers, mean ± SEM, read-out: RT-qPCR, IC50 Sufu-KO): 1500 ± 500 nM
- IC50 ([5]; Table 5, GLI1 mRNA, Ave ± SEM, read-out: RT-qPCR, IC50 Sufu-KO): 1500 ± 500 nM
- Kd ([8]; Table 2, mean ± SEM): 13400 ± 4000 nM
- Kd ([8]; Table 4, mean ± SEM): 13400 ± 4000 nM
- Kd ([8]; Table 5, Ave ± SEM): 13800 ± 3400 nM
- IC50 ([9]; C3H 10T1/2, Table 2, mean ± SEM, read-out: GLI1 mRNA expression, IC50 C3H10T1/2): 260 ± 160 nM
- IC50 ([9]; C3H 10T1/2, Table 4, racemates and enantiomers, mean ± SEM, read-out: RT-qPCR, IC50 C3H10T1/2): 260 ± 160 nM
Compound: CCN(CC)c1ccc(C(Nc2ccccn2)c2ccc3ccc(C)nc3c2O)cc1 (stereo not shown) [Compound 1]
- inhibition of Gli2 mRNA expression, rank (in words) [1]: most active
- Ptch1 mRNA expression (in words) [2]: significantly down-regulated
- GLI2 protein expression (in words) [6]: significantly suppressed
- GI50 [7]: 13800 ± 3400 nM
- % Gli1 Expression ([9]; C3H10T1/2 MEFs, 10 μM, relative to Hh-agonist OHCs (set as 100%), mean ± SEM): 5.9 ± 0.5%
- GI50 [10]: 14.1 ± 2 µM
- GLI1 protein levels (in words) [11]: significantly down-regulated
